Measurements taken from the NIST ThermoML archive (doi:10.1021/je200721d).

Assay: xn = mol fraction of the nth substance listed
Conditions: Liquid, Vibrating tube method

CCCCCCCC [octane] + CCCCCC
Conditions | mass density [kg/m3]
333.01 K, 7000 kPa, x2 = 0.9308 | 636.74
333.01 K, 8000 kPa, x2 = 0.9308 | 638.01
333.01 K, 9000 kPa, x2 = 0.9308 | 639.26
333.01 K, 10000 kPa, x2 = 0.9308 | 640.48
333.01 K, 11000 kPa, x2 = 0.9308 | 641.7
333.01 K, 12000 kPa, x2 = 0.9308 | 642.89
333.01 K, 13000 kPa, x2 = 0.9308 | 644.06
333.01 K, 14000 kPa, x2 = 0.9308 | 645.22
333.01 K, 15000 kPa, x2 = 0.9308 | 646.35
333.01 K, 16000 kPa, x2 = 0.9308 | 647.46
333.01 K, 17000 kPa, x2 = 0.9308 | 648.54
333.01 K, 18000 kPa, x2 = 0.9308 | 649.61
333.01 K, 19000 kPa, x2 = 0.9308 | 650.63
333.01 K, 20000 kPa, x2 = 0.9308 | 651.64
333.01 K, 21000 kPa, x2 = 0.9308 | 652.62
333.01 K, 22000 kPa, x2 = 0.9308 | 653.55
333.01 K, 23000 kPa, x2 = 0.9308 | 654.5
333.01 K, 24000 kPa, x2 = 0.9308 | 655.39
333.01 K, 25000 kPa, x2 = 0.9308 | 656.28
333.02 K, 1000 kPa, x2 = 0.1654 | 665.79
333.02 K, 1000 kPa, x2 = 0.7995 | 637.16
333.02 K, 2000 kPa, x2 = 0.1654 | 666.85
333.02 K, 2000 kPa, x2 = 0.7995 | 638.39
333.02 K, 3000 kPa, x2 = 0.1654 | 667.91
333.02 K, 3000 kPa, x2 = 0.7995 | 639.63
333.02 K, 4000 kPa, x2 = 0.1654 | 668.97
333.02 K, 4000 kPa, x2 = 0.7995 | 640.91
333.02 K, 5000 kPa, x2 = 0.1654 | 670.04
333.02 K, 5000 kPa, x2 = 0.7995 | 642.14
333.02 K, 6000 kPa, x2 = 0.1654 | 671.11
333.02 K, 6000 kPa, x2 = 0.7995 | 643.37
333.02 K, 7000 kPa, x2 = 0.1654 | 672.17
333.02 K, 7000 kPa, x2 = 0.7995 | 644.6
333.02 K, 8000 kPa, x2 = 0.1654 | 673.21
333.02 K, 8000 kPa, x2 = 0.7995 | 645.81
333.02 K, 9000 kPa, x2 = 0.1654 | 674.28
333.02 K, 9000 kPa, x2 = 0.7995 | 647.01
333.02 K, 10000 kPa, x2 = 0.1654 | 675.32
333.02 K, 10000 kPa, x2 = 0.7995 | 648.19
333.02 K, 11000 kPa, x2 = 0.1654 | 676.36
333.02 K, 11000 kPa, x2 = 0.7995 | 649.36
333.02 K, 12000 kPa, x2 = 0.1654 | 677.38
333.02 K, 12000 kPa, x2 = 0.7995 | 650.5
333.02 K, 13000 kPa, x2 = 0.1654 | 678.38
333.02 K, 13000 kPa, x2 = 0.7995 | 651.63
333.02 K, 14000 kPa, x2 = 0.1654 | 679.38
333.02 K, 14000 kPa, x2 = 0.7995 | 652.74
333.02 K, 15000 kPa, x2 = 0.1654 | 680.34
333.02 K, 15000 kPa, x2 = 0.7995 | 653.84
333.02 K, 16000 kPa, x2 = 0.1654 | 681.29
333.02 K, 16000 kPa, x2 = 0.7995 | 654.91
333.02 K, 17000 kPa, x2 = 0.1654 | 682.26
333.02 K, 17000 kPa, x2 = 0.7995 | 655.95
333.02 K, 18000 kPa, x2 = 0.1654 | 683.15
333.02 K, 18000 kPa, x2 = 0.7995 | 656.97
333.02 K, 19000 kPa, x2 = 0.1654 | 684.04
333.02 K, 19000 kPa, x2 = 0.7995 | 657.98
333.02 K, 20000 kPa, x2 = 0.1654 | 684.93
333.02 K, 20000 kPa, x2 = 0.7995 | 658.95
333.02 K, 21000 kPa, x2 = 0.1654 | 685.79
333.02 K, 21000 kPa, x2 = 0.7995 | 659.91
333.02 K, 22000 kPa, x2 = 0.1654 | 686.62
333.02 K, 22000 kPa, x2 = 0.7995 | 660.83
333.02 K, 23000 kPa, x2 = 0.1654 | 687.45
333.02 K, 23000 kPa, x2 = 0.7995 | 661.72
333.02 K, 24000 kPa, x2 = 0.1654 | 688.25
333.02 K, 24000 kPa, x2 = 0.7995 | 662.6
333.02 K, 25000 kPa, x2 = 0.1654 | 689.01
333.02 K, 25000 kPa, x2 = 0.7995 | 663.44
333.04 K, 1000 kPa, x2 = 0.2199 | 663.81
333.04 K, 2000 kPa, x2 = 0.2199 | 664.87
333.04 K, 3000 kPa, x2 = 0.2199 | 665.96
333.04 K, 4000 kPa, x2 = 0.2199 | 667.04
333.04 K, 5000 kPa, x2 = 0.2199 | 668.13
333.04 K, 6000 kPa, x2 = 0.2199 | 669.19
333.04 K, 7000 kPa, x2 = 0.2199 | 670.26
333.04 K, 8000 kPa, x2 = 0.2199 | 671.36
333.04 K, 9000 kPa, x2 = 0.2199 | 672.39
333.04 K, 10000 kPa, x2 = 0.2199 | 673.44
333.04 K, 11000 kPa, x2 = 0.2199 | 674.49
333.04 K, 12000 kPa, x2 = 0.2199 | 675.5
333.04 K, 13000 kPa, x2 = 0.2199 | 676.53
333.04 K, 14000 kPa, x2 = 0.2199 | 677.53
333.04 K, 15000 kPa, x2 = 0.2199 | 678.51
333.04 K, 16000 kPa, x2 = 0.2199 | 679.46
333.04 K, 17000 kPa, x2 = 0.2199 | 680.4
333.04 K, 18000 kPa, x2 = 0.2199 | 681.32
333.04 K, 19000 kPa, x2 = 0.2199 | 682.23
333.04 K, 20000 kPa, x2 = 0.2199 | 683.09
333.04 K, 21000 kPa, x2 = 0.2199 | 683.96
333.04 K, 22000 kPa, x2 = 0.2199 | 684.8
333.04 K, 23000 kPa, x2 = 0.2199 | 685.61
333.04 K, 24000 kPa, x2 = 0.2199 | 686.43
333.04 K, 25000 kPa, x2 = 0.2199 | 687.22
